Measurements taken from US20080161232A1, “C5a Receptor Antagonist” (JERINI AG, priority 2005, published 2008).
pIC50: −log10 of the molar value. Where two headings read alike, the source gives them in different places. Starred links: 1 amine or outer side, 2 acyl side, 3 side chain; linkers in the order of their positions; H or OH if unused. Positions of bridges follow the written chain, without caps; N, C: chain ends. Non-standard residues stand in square brackets, D forms with d. Residues, ends and D or L forms follow the SMILES beside them. *: point of attachment. Phe(3,4-Cl2) = N[C@@H](Cc1ccc(Cl)c(Cl)c1)C(=O)O; Dihydroorotyl(S) = O=C1C[C@@H](C(=O)*)NC(=O)N1; Phe(4-tBu) = CC(C)(C)c1ccc(C[C@H](N)C(=O)O)cc1; dβ3hPhg = O=C(C[C@H](N[*:1])c1ccccc1)[*:2]; Decanoyl(3,6,9-trioxa) = COCCOCCOCC(=O)*; Phe(4-F) = N[C@@H](Cc1ccc(F)cc1)C(=O)O; X5 = CCN(CC)CCC[C@H](N[*:1])C(=O)[*:2]; Phe(2-F) = N[C@@H](Cc1ccccc1F)C(=O)O; X11 = N=C(N)N[C@@H](Cc1ccccc1)C(=O)*; Bta = N[C@@H](Cc1csc2ccccc12)C(=O)O; Hyp = O=C(O)[C@@H]1C[C@@H](O)CN1; d(hLeu) = CC(C)CC[C@@H](N)C(=O)O; Cit = NC(=O)NCCC[C@H](N)C(=O)O; dCha = N[C@H](CC1CCCCC1)C(=O)O; Agb = N=C(N)NCC[C@H](N)C(=O)O; Phg = N[C@H](C(=O)O)c1ccccc1; Nicotinoyl = O=C(c1cccnc1)*; Nle = CCCC[C@H](N)C(=O)O; Orn = NCCC[C@H](N)C(=O)O; Aze = O=C(O)[C@@H]1CCN1; Dab = NCC[C@H](N)C(=O)O; X17 = c1cc(CC*)ccn1

Biological target: T1, human C5aR(CD88) (Homo sapiens, UniProt P21730)
T1 construct: expressed in transfected cells; host or cells: rat basophilic leukemia cells (RBL)
T1 sequence (P21730 1-350): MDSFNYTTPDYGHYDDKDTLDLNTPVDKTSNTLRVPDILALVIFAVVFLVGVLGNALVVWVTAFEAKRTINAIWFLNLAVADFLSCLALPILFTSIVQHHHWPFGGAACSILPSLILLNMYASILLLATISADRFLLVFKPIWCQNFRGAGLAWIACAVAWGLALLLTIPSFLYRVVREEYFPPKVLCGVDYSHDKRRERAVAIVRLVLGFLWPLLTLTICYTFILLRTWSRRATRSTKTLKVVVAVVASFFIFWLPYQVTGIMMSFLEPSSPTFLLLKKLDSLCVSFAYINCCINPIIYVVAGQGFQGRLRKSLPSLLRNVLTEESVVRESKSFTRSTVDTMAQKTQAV
Assay: Determination of the IC50 value in an enzyme release assay (functional assay, antagonistic activity)
Type: cell-based

[1] = antagonistic activity, IC50 group in enzyme release assay, RBL cells expressing human C5aR(CD88), read-out: activity (group)

SMILES	pIC50 [1]	pIC50 (activity (group))
CC(=O)N[C@@H](Cc1ccccc1)C(=O)N[C@H]1CCCNC(=O)[C@H](Cc2ccccc2)NC(=O)[C@H](Cc2csc3ccccc23)NC(=O)[C@@H](CCC(C)C)NC(=O)[C@@H]2C[C@@H](O)CN2C1=O [Compound 177, Ac-Phe-[Orn-Hyp-hle-Bta-Phe]] (Ac-F[Orn][Hyp][d(hLeu)][Bta]F; lactam 2-C)	6.70 to 7.30	–
CC(=O)N[C@@H](Cc1ccccc1)C(=O)N[C@@H](CCCN)C(=O)N1CCC[C@H]1C(=O)N[C@H](CCC(C)C)C(=O)N[C@@H](Cc1csc2ccccc12)C(=O)N[C@@H](Cc1ccc(Cl)c(Cl)c1)C(N)=O [Compound 276, Ac-Phe-Orn-Pro-hle-Bta-Eaa-NH2] (Ac-F[Orn]P[d(hLeu)][Bta][Phe(3,4-Cl2)]-NH2)	6.70 to 7.30	–
CC(=O)N[C@@H](Cc1ccccc1)C(=O)N[C@@H](CCNC(=N)N)C(=O)N1CCC[C@H]1C(=O)N[C@H](CC1CCCCC1)C(=O)N[C@@H](Cc1csc2ccccc12)C(=O)N[C@@H](Cc1ccccc1)C(N)=O [Compound 231, Ac-Phe-L22-Pro-cha-Bta-Phe-NH2] (Ac-F[Agb]P[dCha][Bta]F-NH2)	7.70 to 8.00	–
CO[C@@H]1C[C@H]2C(=O)N[C@H](CCC(C)C)C(=O)N[C@@H](Cc3ccc(F)cc3)C(=O)N[C@@H](Cc3ccccc3)C(=O)NCCC[C@H](NC(=O)[C@@H](N)Cc3ccccc3)C(=O)N2C1 [Compound 355, H-Phe-[Orn-Hym-hle-Pff-Phe]] (H-F[Orn][Hyp](Me)[d(hLeu)][Phe(4-F)]F; lactam 2-C)	–	6.70 to 7.30
CC(=O)N[C@@H](Cc1ccccc1)C(=O)N[C@@H](CCCNC(N)=O)C(=O)N1C[C@H](O)C[C@H]1C(=O)N[C@H](CCC(C)C)C(=O)N[C@@H](Cc1csc2ccccc12)C(=O)N[C@@H](Cc1ccccc1)C(N)=O [Compound 209, Ac-Phe-Cit-Hyp-hle-Bta-Phe-NH2] (Ac-F[Cit][Hyp][d(hLeu)][Bta]F-NH2)	6.70 to 7.30	–
CC(=O)N[C@@H](Cc1ccccc1)C(=O)N[C@@H](CCCN)C(=O)N1CCC[C@H]1C(=O)N[C@H](CCC(C)C)C(=O)N[C@@H](Cc1ccc(F)cc1)C(=O)N[C@@H](Cc1ccccc1)C(N)=O [Compound 302, Ac-Phe-Orn-Pro-hle-Pff-Phe-NH2] (Ac-F[Orn]P[d(hLeu)][Phe(4-F)]F-NH2)	–	6.70 to 7.30
CC(=O)N[C@@H](Cc1ccccc1)C(=O)N[C@@H](CCCN)C(=O)N1CCC[C@H]1C(=O)N[C@H](CCC(C)C)C(=O)N[C@@H](Cc1ccc(Cl)c(Cl)c1)C(=O)N[C@@H](Cc1ccccc1)C(N)=O [Compound 284, Ac-Phe-Orn-Pro-hle-Eaa-Phe-NH2] (Ac-F[Orn]P[d(hLeu)][Phe(3,4-Cl2)]F-NH2)	6.70 to 7.30	–
NCCC[C@H](NC(=O)[C@@H](N)Cc1ccccc1)C(=O)N1CCC[C@H]1C(=O)N[C@H](CC1CCCCC1)C(=O)N[C@@H](Cc1c[nH]c2ccccc12)C(=O)N[C@@H](Cc1ccccc1)C(N)=O [Compound 74, H-Phe-Orn-Pro-cha-Trp-Phe-NH2] (H-F[Orn]P[dCha]WF-NH2)	6.70 to 7.30	–
CCN(CC)CCC[C@H](NC(=O)[C@H](Cc1ccccc1)NC(C)=O)C(=O)N1CCC[C@H]1C(=O)N[C@H](CC1CCCCC1)C(=O)N[C@@H](Cc1csc2ccccc12)C(=O)N[C@@H](Cc1ccccc1)C(N)=O [Compound 233, Ac-Phe-OrE-Pro-cha-Bta-Phe-NH2] (Ac-F[X5]P[dCha][Bta]F-NH2)	6.70 to 7.30	–
CC(=O)N[C@@H](Cc1ccccc1)C(=O)N[C@H]1CCCNC(=O)[C@H](Cc2ccccc2)NC(=O)[C@H](Cc2c[nH]c3ccccc23)NC(=O)[C@@H](CCC(C)C)NC(=O)[C@@H]2C[C@@H](O)CN2C1=O [Compound 181, Ac-Phe-[Orn-Hyp-hle-Trp-Phe]] (Ac-F[Orn][Hyp][d(hLeu)]WF; lactam 2-C)	7.30 to 7.70	–
CC(=O)N[C@@H](Cc1ccccc1)C(=O)N[C@@H](CCCN)C(=O)N1CCC[C@H]1C(=O)N[C@H](CCC(C)C)C(=O)N[C@@H](Cc1ccccc1F)C(=O)N[C@@H](Cc1ccccc1)C(N)=O [Compound 295, Ac-Phe-Orn-Pro-hle-Off-Phe-NH2] (Ac-F[Orn]P[d(hLeu)][Phe(2-F)]F-NH2)	6.70 to 7.30	–

Further lines, with some results ahead:

pIC50 [1]	SMILES	pIC50 (activity (group))
5.70 to 6.70	CC(=O)N[C@@H](Cc1ccccc1)C(=O)N[C@H]1CCCNC(=O)[C@H](CSCCc2ccncc2)NC(=O)[C@H](Cc2c[nH]c3ccccc23)NC(=O)[C@@H](CC2CCCCC2)NC(=O)[C@@H]2CCCN2C1=O [compound 19] (Ac-F[Orn]P[dCha]WC(X17); lactam 2-C)	–
7.30 to 7.70	CC(=O)N[C@@H](CC(=O)N[C@@H](CCCN)C(=O)N1CCC[C@H]1C(=O)N[C@H](CC1CCCCC1)C(=O)N[C@@H](Cc1csc2ccccc12)C(=O)N[C@@H](Cc1ccccc1)C(N)=O)c1ccccc1 [Compound 125, Ac-Eby-Orn-Pro-cha-Bta-Phe-NH2] (Ac-[dβ3hPhg][Orn]P[dCha][Bta]F-NH2)	–
6.70 to 7.30	CC(=O)N[C@@H](Cc1ccccc1)C(=O)N[C@@H](Cc1c[nH]c2ccccc12)C(=O)N1CCC[C@H]1C(=O)N[C@H](CC1CCCCC1)C(=O)N[C@@H](Cc1csc2ccccc12)C(=O)N[C@@H](Cc1ccccc1)C(N)=O [Compound 113, Ac-Phe-Trp-Pro-cha-Bta-Phe-NH2] (Ac-FWP[dCha][Bta]F-NH2)	–
6.70 to 7.30	O=C(N[C@@H](Cc1ccccc1)C(=O)N[C@H]1CCCNC(=O)[C@H](Cc2ccccc2)NC(=O)[C@H](Cc2c[nH]c3ccccc23)NC(=O)[C@@H](CC2CCCCC2)NC(=O)[C@@H]2C[C@@H](O)CN2C1=O)c1cccnc1 [Compound 326, Fbn-Phe-[Orn-Hyp-cha-Trp-Phe]] (Nicotinoyl-F[Orn][Hyp][dCha]WF; lactam 2-C)	–
7.30 to 7.70	CC(=O)N[C@@H](Cc1ccccc1)C(=O)N[C@@H](CCCN)C(=O)N[C@@H](CO)C(=O)N[C@H](CC1CCCCC1)C(=O)N[C@@H](Cc1c[nH]c2ccccc12)C(=O)N[C@@H](Cc1ccccc1)C(N)=O [Compound 108, Ac-Phe-Orn-Ser-cha-Trp-Phe-NH2] (Ac-F[Orn]S[dCha]WF-NH2)	–
6.70 to 7.30	CC(=O)N[C@@H](CCN)C(=O)N[C@@H](Cc1ccccc1)C(=O)N[C@@H](CCCN)C(=O)N1CC[C@H]1C(=O)N[C@H](CC1CCCCC1)C(=O)N[C@@H](Cc1csc2ccccc12)C(=O)N[C@@H](Cc1ccccc1)C(N)=O [Compound 141, Ac-Dab-Phe-Orn-Aze-cha-Bta-Phe-NH2] (Ac-[Dab]F[Orn][Aze][dCha][Bta]F-NH2)	–
5.70 to 6.70	CC(=O)N[C@@H](Cc1ccccc1)C(=O)N[C@@H](CCCN)C(=O)N1CCC[C@H]1C(=O)N[C@H](CC1CCCCC1)C(=O)N[C@@H](Cc1c[nH]c2ccccc12)C(=O)N[C@H](C(N)=O)c1ccccc1 [Compound 111, Ac-Phe-Orn-Pro-cha-Trp-Phg-NH2] (Ac-F[Orn]P[dCha]W[Phg]-NH2)	–
5.70 to 6.70	CC(=O)N[C@@H](Cc1ccccc1)C(=O)N[C@@H](CCCN)C(=O)N1CCC[C@H]1C(=O)N[C@H](CC1CCCCC1)C(=O)N[C@@H](Cc1c[nH]c2ccccc12)C(=O)N[C@@H](Cc1ccc(C(C)(C)C)cc1)C(N)=O [Compound 68, Ac-Phe-Orn-Pro-cha-Trp-Eap-NH2] (Ac-F[Orn]P[dCha]W[Phe(4-tBu)]-NH2)	–
6.70 to 7.30	CCCC[C@@H]1NC(=O)[C@H](Cc2c[nH]c3ccccc23)NC(=O)[C@@H](CC2CCCCC2)NC(=O)[C@@H]2CCCN2C(=O)[C@@H](NC(=O)[C@H](Cc2ccccc2)NC(=O)c2cccnc2)CCCNC1=O [Compound 327, Fbn-Phe-[Orn-Pro-cha-Trp-Nle]] (Nicotinoyl-F[Orn]P[dCha]W[Nle]; lactam 2-C)	–
6.70 to 7.30	CCCC[C@@H]1NC(=O)[C@H](Cc2ccc(F)cc2)NC(=O)[C@@H](CCC(C)C)NC(=O)[C@@H]2CCCN2C(=O)[C@@H](NC(=O)[C@H](Cc2ccccc2)NC(=N)N)CCCNC1=O [Compound 338, Fhu-Phe-[Orn-Pro-hle-Pff-Nle]] (X11-[Orn]P[d(hLeu)][Phe(4-F)][Nle]; lactam 1-C)	–
6.70 to 7.30	COCCOCCOCC(=O)N[C@@H](Cc1ccccc1)C(=O)N[C@H]1CCCNC(=O)[C@H](Cc2ccccc2)NC(=O)[C@H](Cc2c[nH]c3ccccc23)NC(=O)[C@@H](CC2CCCCC2)NC(=O)[C@@H]2C[C@@H](O)CN2C1=O [Compound 337, Fhi-Phe-[Orn-Hyp-cha-Trp-Phe]] ({Decanoyl(3,6,9-trioxa)}-F[Orn][Hyp][dCha]WF; lactam 2-C)	–
7.70 to 8.00	CC(=O)N[C@@H](CO)C(=O)N[C@@H](Cc1ccccc1)C(=O)N[C@@H](CCCN)C(=O)N1CC[C@H]1C(=O)N[C@H](CC1CCCCC1)C(=O)N[C@@H](Cc1csc2ccccc12)C(=O)N[C@@H](Cc1ccccc1)C(N)=O [Compound 310, Ac-Ser-Phe-Orn-Aze-cha-Bta-Phe-NH2] (Ac-SF[Orn][Aze][dCha][Bta]F-NH2)	–
7.30 to 7.70	CCCC[C@@H]1NC(=O)[C@H](Cc2c[nH]c3ccccc23)NC(=O)[C@@H](CCC(C)C)NC(=O)[C@@H]2CCCN2C(=O)[C@@H](NC(=O)[C@H](Cc2ccccc2)NC(C)=O)CCCNC1=O [Compound 199, Ac-Phe-[Orn-Pro-hle-Trp-Nle]] (Ac-F[Orn]P[d(hLeu)]W[Nle]; lactam 2-C)	–
6.70 to 7.30	CC(=O)N[C@@H](Cc1ccccc1)C(=O)N[C@@H](CCCN)C(=O)N1CCC[C@H]1C(=O)N[C@H](CCC(C)C)C(=O)N[C@@H](Cc1ccc(F)cc1)C(=O)N[C@@H](Cc1ccc(Cl)c(Cl)c1)C(N)=O [Compound 299, Ac-Phe-Orn-Pro-hle-Pff-Eaa-NH2] (Ac-F[Orn]P[d(hLeu)][Phe(4-F)][Phe(3,4-Cl2)]-NH2)	–
6.70 to 7.30	CCCC[C@@H]1NC(=O)[C@H](Cc2ccc(F)cc2)NC(=O)[C@@H](CCC(C)C)NC(=O)[C@@H]2C[C@@H](O)CN2C(=O)[C@@H](NC(=O)[C@H](Cc2ccccc2)NC(=O)[C@@H]2CC(=O)NC(=O)N2)CCCNC1=O [Compound 347, Hoo-Phe-[Orn-Hyp-hle-Pff-Nle]] ({Dihydroorotyl(S)}-F[Orn][Hyp][d(hLeu)][Phe(4-F)][Nle]; lactam 2-C)	–
